Measured values published in ChEMBL document CHEMBL4419175, “Compositions for treatment, diagnosis and prognosis of diseases” (2016).
Activity calls are given as the source filed them.

Assays:
[1] = system: LNCaP; assay: Effect on CREB phosphorylation in human LNCAP cells at 20 uM incubated for 48 hrs by immunoblot analysis; type: functional, cell-based
[2] = system: PC-3; assay: Inhibition of PIP5K1alpha protein expression in human PC3 cells assessed as reduction in AKT phosphorylation at Ser473 residues at 50 uM incubated for 48 hrs by immunoblot analysis relative to control; type: functional, cell-based
[3] = system: LNCaP; assay: Inhibition of PIP5K1alpha protein expression in human LNCAP cells assessed as reduction in AKT phosphorylation at Ser473 residues at 20 uM incubated for 48 hrs by immunoblot analysis relative to control; type: functional

COc1cc([C@@H]2c3cc4c(cc3[C@@H](O[C@@H]3O[C@@H]5CO[C@@H](C)O[C@H]5[C@H](O)[C@H]3O)[C@H]3COC(=O)[C@H]23)OCO4)cc(OC)c1O
inactive: Activity [1] | inhibition [2] | inhibition [3]

CN1CC(=O)N2[C@H](c3ccc4c(c3)OCO4)c3[nH]c4ccccc4c3C[C@@H]2C1=O
inactive: Activity [1] | inhibition [2] | inhibition [3]
